Key:
Format in all cases: cell-based
D54 cells [1] = assay: Recovery of adherent cells after buffer incubation and plating (phase contrast imaging, confluency by ImageJ); settings: 5 μM ROCKi in DEP buffer, 6 hours incubation, among DEP buffers, N=1
Experimental: (A) Schematic describes experimental paradigm to test D54 viability after incubation in cell culture media or DEP buffer. Adherent D54 cells were dissociated then resuspended in media or DEP buffer and incubated on ice or at room temperature (RT). Cell viability was tested immediately after incubation by trypan blue. Equivalent numbers of cells were plated per condition and adherent cells observed after 1-2 days by phase contrast microscopy to assess cell recovery. (B) Cell viability after 6-hour incubation remained high for all conditions. Viability of D54 cells in DEP buffer may be slightly lower than that of cells in media. N=1. […]
(§1) DEP buffer (DB): 8.5% w/v sucrose, 0.3% w/v glucose, 0.725% RPMI. […] (B) Cells were plated after incubation and the confluency (% culture surface area covered by cells) of adherent cells measured 1 day later using ImageJ. […]
(§2) Assessing the viability of D54 cells in a DEP buffer used for sorting mouse and human neural stem and progenitor cells. […] Further, the effect of temperature of the buffer (ice or room temperature) on cell viability was also evaluated. […] After the 6-hour buffer incubation, the cells were plated under normal growth conditions and assessed by phase contrast imaging 1-2 days later to assess cell survival and growth. […]

D54 cells [2] = assay: TMZ resistance (TMZ IC50 fold change) of cells plated after buffer incubation; settings: 5 μM ROCKi in DEP buffer; cells plated in normal growth medium without ROCKi
Experimental: (§3) FIG. 2A-D presents optimization of buffer conditions for DEP-based sorting of GBM cells. (A) Viability of D54 cells immediately after 6-hour RT incubation in regular growth media, DEP buffer, or DEP buffer supplemented with 5 μM ROCKi was measured by trypan blue staining. […] (B) After 6-hour incubation in media or buffers, D54 cells were plated in normal growth conditions and the number of cells measured after 2 days by XTT assay. […] Acutely isolated cells (Media control, 0 h) served as a control. (D) D54 cells were plated after 6-hour incubation in buffers and after 1 day were exposed to TMZ to assess TMZ resistance. TMZ IC50 is shown as fold change relative to media control, 0 h, and no difference in TMZ resistance was detected across samples. Error bars show SD. N≥3, one-way ANOVA, Tukey post hoc for multiple comparisons, *p<0.05, **p<0.01, ***p<0.001, ****p<0.0001.
(A) Viability of D54 cells immediately after 6-hour incubation in regular growth media, DEP buffer, or DEP buffer supplemented with 1, 5, or 10 μM ROCKi was measured by trypan blue staining. Acutely isolated cells (Media control, 0 h) served as a control. […] (C) There was no significant difference in the diameters of D54 cells in any of the conditions. (D) There was no significant difference in TMZ resistance as measured by fold change in IC50 relative to acutely isolated cells (Media control, 0 h). Error bars show SD. […]

D54 cells [3] = assay: XTT assay of cell numbers after plating and growth for 2 days; settings: 5 μM ROCKi in DEP buffer vs DEP buffer without ROCKi, 6-hour incubation
Experimental: as §3
D54 cell viability studies conducted with a modified DEP buffer that included ROCKi. ROCK inhibitor (ROCKi) was included in the DEP buffer at concentrations ranging from 1-10 μM. […] Addition of 5 μM ROCKi to the DEP buffer improved D54 acute viability, as assessed by trypan blue staining, and led to greater than 90% viable cells (see FIG. 2A). An XTT assay was used to measure cell numbers after plating and growth for 2 days.

D54 cells [4] = assay: D54 viability by trypan blue staining immediately after incubation in media or DEP buffer; settings: for viability in the DEP buffer: 6-hour incubation
Experimental: (A) Schematic describes experimental paradigm to test D54 viability after incubation in cell culture media or DEP buffer. Adherent D54 cells were dissociated then resuspended in media or DEP buffer and incubated on ice or at room temperature (RT). Cell viability was tested immediately after incubation by trypan blue. Equivalent numbers of cells were plated per condition and adherent cells observed after 1-2 days by phase contrast microscopy to assess cell recovery. (B) Cell viability after 6-hour incubation remained high for all conditions. Viability of D54 cells in DEP buffer may be slightly lower than that of cells in media. N=1. (C) Phase-contrast images of D54 cells stained with trypan blue after 6-hour incubation show high cell viability and increased clustering of cells incubated in media at RT. (D) Phase contrast images of adherent D54 cells one day after 6-hour incubation in media or DEP buffer. Cells incubated in media at RT show the best recovery, indicated by cell number and cell morphology. (E) Phase contrast images of adherent D54 cells one day after 0-6 hour incubation in media or DEP buffer. Cell recovery decreases with increasing incubation time in DEP buffer.
as §3, with “N≥3, one-way ANOVA, Tukey post hoc for multiple comparisons, *p<0.05, **p<0.01, ***p<0.001, ****p<0.0001.” left out
(A) Viability of D54 cells immediately after 6-hour incubation in regular growth media, DEP buffer, or DEP buffer supplemented with 1, 5, or 10 μM ROCKi was measured by trypan blue staining. […]
as §1, §2

C[C@@H](N)[C@H]1CC[C@H](C(=O)Nc2ccncc2)CC1 [ROCKi, Y27632]
confluency of adherent cells 1 day after plating (D54 cells [1]): the most confluency | TMZ resistance (fold change in TMZ IC50) (D54 cells [2]): did not alter TMZ resistance | cell numbers after plating and growth for 2 days (XTT) (D54 cells [3]): significantly increased cell numbers | viability in the DEP buffer (D54 cells [4]; 1 μM ROCKi in DEP buffer): improved viability | viable cells (acute viability, trypan blue) (D54 cells [4]; 5 μM ROCKi in DEP buffer, 6-hour RT incubation): greater than 90% | viability in the DEP buffer (D54 cells [4]; 5 μM ROCKi in DEP buffer): improved viability | best concentration for D54 cell viability (D54 cells [4]; ROCKi in DEP buffer at 1-10 μM): 5 µM
